Results: ChEMBL document CHEMBL6109169, “1,6-Naphthridine Compounds as SMARCA2 Inhibitors for Treating Non-small Cell Lung Cancer” (ACS Med Chem Lett, 2025)

Molecular target: SWI/SNF-related matrix-associated actin-dependent regulator of chromatin subfamily A member 2 (Homo sapiens, UniProt P51531)
Test: Inhibition of N-terminal hexa-histidine-tagged truncated human SMARCA2 (470 to 1590 residues) extracted from Sf9 insect cells using poly(dA-dT) linear dsDNA as substrate preincubated for 30 mins followed by substrate/ATP addition measured after 180 mins by ADP-Glo assay
Type: cell-free

SWI/SNF-related matrix-associated actin-dependent regulator of chromatin subfamily A member 2, sequence (P51531 whole entry, the tested form may be a part): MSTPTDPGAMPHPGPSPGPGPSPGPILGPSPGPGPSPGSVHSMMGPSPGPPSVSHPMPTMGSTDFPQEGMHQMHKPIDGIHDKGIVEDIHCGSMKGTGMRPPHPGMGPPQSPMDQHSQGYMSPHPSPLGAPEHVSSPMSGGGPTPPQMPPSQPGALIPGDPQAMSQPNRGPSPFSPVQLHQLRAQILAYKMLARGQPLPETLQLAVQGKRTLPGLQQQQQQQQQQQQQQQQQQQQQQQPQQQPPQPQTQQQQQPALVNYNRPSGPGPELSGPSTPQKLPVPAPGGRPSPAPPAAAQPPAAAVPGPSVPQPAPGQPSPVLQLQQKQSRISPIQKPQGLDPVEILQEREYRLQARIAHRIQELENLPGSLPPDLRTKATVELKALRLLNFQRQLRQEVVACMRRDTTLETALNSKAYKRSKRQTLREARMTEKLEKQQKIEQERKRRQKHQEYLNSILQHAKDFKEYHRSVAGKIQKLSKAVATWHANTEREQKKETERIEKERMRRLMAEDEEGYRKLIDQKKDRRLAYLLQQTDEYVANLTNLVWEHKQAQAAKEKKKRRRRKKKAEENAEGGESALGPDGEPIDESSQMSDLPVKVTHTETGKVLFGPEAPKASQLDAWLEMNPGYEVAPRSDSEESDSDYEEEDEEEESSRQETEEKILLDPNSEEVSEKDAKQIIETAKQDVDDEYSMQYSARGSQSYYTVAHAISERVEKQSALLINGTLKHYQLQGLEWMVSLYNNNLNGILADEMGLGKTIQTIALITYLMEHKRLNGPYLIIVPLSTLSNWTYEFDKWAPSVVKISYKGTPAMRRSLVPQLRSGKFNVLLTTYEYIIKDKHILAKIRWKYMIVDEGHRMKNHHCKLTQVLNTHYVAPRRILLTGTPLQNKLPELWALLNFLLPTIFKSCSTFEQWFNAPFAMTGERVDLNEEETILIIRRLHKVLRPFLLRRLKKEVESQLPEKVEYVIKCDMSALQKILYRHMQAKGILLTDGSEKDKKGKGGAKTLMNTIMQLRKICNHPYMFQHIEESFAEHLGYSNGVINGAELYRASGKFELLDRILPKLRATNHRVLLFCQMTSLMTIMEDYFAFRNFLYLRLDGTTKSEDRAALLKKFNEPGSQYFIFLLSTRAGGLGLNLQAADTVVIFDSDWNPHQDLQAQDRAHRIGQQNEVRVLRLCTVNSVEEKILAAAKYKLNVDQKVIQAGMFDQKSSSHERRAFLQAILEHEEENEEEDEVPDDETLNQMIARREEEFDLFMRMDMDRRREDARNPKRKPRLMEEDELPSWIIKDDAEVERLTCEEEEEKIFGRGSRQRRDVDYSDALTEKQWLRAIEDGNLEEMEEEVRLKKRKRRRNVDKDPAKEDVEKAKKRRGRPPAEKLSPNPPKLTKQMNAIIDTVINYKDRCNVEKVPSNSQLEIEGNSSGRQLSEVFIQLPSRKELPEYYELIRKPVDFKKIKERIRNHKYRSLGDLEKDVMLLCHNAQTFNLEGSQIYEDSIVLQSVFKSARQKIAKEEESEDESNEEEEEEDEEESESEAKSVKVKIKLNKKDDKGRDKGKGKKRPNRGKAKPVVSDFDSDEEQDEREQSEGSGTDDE

IC50 [nM] | SMILES
3.6 | CCS(=O)(=O)N1CCc2ccc(C(=O)NCc3cc4nc(-c5cccc(N6C[C@@H](C)O[C@@H](C)C6)n5)ccc4cn3)cc21
2.27 | C[C@@H]1CN(c2cccc(-c3ccc4cnc(CNC(=O)c5cc(Cl)c6c(c5)N(S(C)(=O)=O)CC6)cc4n3)n2)C[C@H](C)O1
8.14 | C=CCS(=O)(=O)N1CCc2ccc(C(=O)NCc3cc4nc(-c5cccc(N6C[C@@H](C)O[C@@H](C)C6)n5)ccc4cn3)cc21
